Several values for one entry are separate records, joined by “and”; a condition that tells them apart may be missing. Equal entries are not always repeated. Inconclusive results and toxic doses are left out.

The test system of the test is P388 leukemia ip, CD2F1 mice, survival T/C. In words: NCI In Vivo Anticancer Drug Screen. Data for tumor model P388 Leukemia (intraperitoneal) in CD2F1 (CDF1) mice. The note with it: endpoint: median survival time, higher = longer survival. The method in brief:
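Mice carrying the transplanted tumor received test compound or vehicle. Survival was recorded in each group, and the value is the treated-group measurement divided by that of the vehicle-treated control group.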

Where [1] appears, read: dose: 60.0 mg/kg/injection, schedule: Q01DX005 (ip), vehicle: saline with Tween-80.
Setting [2] is: dose: 120.0 mg/kg/injection, schedule: Q01DX005 (ip), vehicle: saline with Tween-80.
The mark [3] stands for this setting: dose: 240.0 mg/kg/injection, schedule: Q01DX005 (ip), vehicle: saline with Tween-80.
[4] abbreviates: dose: 50.0 mg/kg/injection, schedule: Q01DX005 (ip), vehicle: Klucel (hydroxypropylcellulose) (HPC).
[5] abbreviates: dose: 100.0 mg/kg/injection, schedule: Q01DX005 (ip), vehicle: Klucel (hydroxypropylcellulose) (HPC).
Where [6] appears, read: dose: 100.0 mg/kg/injection, schedule: Q01DX001 (ip), vehicle: saline with Tween-80.
Setting [7] is: dose: 200.0 mg/kg/injection, schedule: Q01DX001 (ip), vehicle: saline with Tween-80.
[8] abbreviates: dose: 400.0 mg/kg/injection, schedule: Q01DX001 (ip), vehicle: saline with Tween-80.
Where [9] appears, read: dose: 50.0 mg/kg/injection, schedule: Q01DX009 (ip), vehicle: Klucel (hydroxypropylcellulose) (HPC).
[10] abbreviates: dose: 12.5 mg/kg/injection, schedule: Q01DX009 (ip), vehicle: saline with Tween-80.
Setting [11] is: dose: 25.0 mg/kg/injection, schedule: Q01DX009 (ip), vehicle: saline with Tween-80.
[12] abbreviates: dose: 50.0 mg/kg/injection, schedule: Q01DX009 (ip), vehicle: saline with Tween-80.

On to `O=C(NCc1ccco1)Nc1ccccc1C(F)(F)F`, for which the T/C was 94 % of control under setting [1], 99 % of control under setting [2] and 90 % of control under setting [3].
For `C1CNC(SCC2CC3CC2C2OC32)=N1` (centres undefined), the T/C reads like this: under setting [4], 98 % of control; under setting [5], 101 % of control.
In the case of `C[N+](C)([O-])CCCNc1c2ccccc2nc2cccc([N+](=O)[O-])c12`, the T/C by setting is: (dose: 0.79 mg/kg/injection, schedule: Q01DX009 (ip), vehicle: saline) 108 % of control; (dose: 1.56 mg/kg/injection, schedule: Q01DX009 (ip), vehicle: saline) 110 % of control; (dose: 3.12 mg/kg/injection, schedule: Q01DX009 (ip), vehicle: saline) 117 % of control and 118 % of control.
On to `CCC(c1ccc(OC)cc1)C(NC(=S)Nc1ccc(C)cc1)c1ccc(OC)cc1` (centres undefined), for which the T/C by setting is: under setting [6], 88 % of control; under setting [7], 88 % of control; under setting [8], 90 % of control.
For `COC(=O)C1CC(C)N1C1CCCCC1` (centres undefined), the T/C by setting is: (dose: 50.0 mg/kg/injection, schedule: Q01DX005 (ip), vehicle: saline) 97 % of control; (dose: 100.0 mg/kg/injection, schedule: Q01DX005 (ip), vehicle: saline) 97 % of control; (dose: 200.0 mg/kg/injection, schedule: Q01DX005 (ip), vehicle: saline) 101 % of control.
In the case of `N#CCc1nn(-c2ccccc2)c2ncnc(N)c12`, the T/C (dose: 6.25 mg/kg/injection, schedule: Q01DX009 (ip), vehicle: Klucel (hydroxypropylcellulose) (HPC)) is 103 % of control; the T/C (dose: 12.5 mg/kg/injection, schedule: Q01DX009 (ip), vehicle: Klucel (hydroxypropylcellulose) (HPC)) was 100 % of control and 114 % of control and 94 % of control; the T/C (dose: 25.0 mg/kg/injection, schedule: Q01DX009 (ip), vehicle: Klucel (hydroxypropylcellulose) (HPC)) was 108 % of control and 97 % of control (2×); the T/C under setting [9] is 100 % of control and 120 % of control and 98 % of control; the T/C (dose: 100.0 mg/kg/injection, schedule: Q01DX009 (ip), vehicle: Klucel (hydroxypropylcellulose) (HPC)) is 106 % of control.
With `Nc1nc(N2CCCCC2)c2nc(Cl)n(C3OC(CO)C(O)C3O)c2n1` (centres undefined), the T/C under setting [1] was 92 % of control, the T/C under setting [2] was 101 % of control and the T/C under setting [3] was 100 % of control.
As to `CC1CCC2C(C)C3C(CC4C5CCC6CC(O)CCC6(C)C5CCC43CO)N2C1` (centres undefined), the T/C is 101 % of control under setting [4]; 108 % of control under setting [5]; 113 % of control (dose: 200.0 mg/kg/injection, schedule: Q01DX005 (ip), vehicle: Klucel (hydroxypropylcellulose) (HPC)).
On to `[Cl][Pt+2][Cl].[NH-]c1ccc([N+](=O)[O-])cc1[NH-]`, for which the T/C reads like this: (dose: 3.12 mg/kg/injection, schedule: Q04DX002 (ip), vehicle: saline with Tween-80) 100 % of control; (dose: 6.25 mg/kg/injection, schedule: Q04DX002 (ip), vehicle: saline with Tween-80) 110 % of control and 113 % of control; (dose: 12.5 mg/kg/injection, schedule: Q04DX002 (ip), vehicle: saline with Tween-80) 115 % of control and 118 % of control; (dose: 25.0 mg/kg/injection, schedule: Q04DX002 (ip), vehicle: saline with Tween-80) 123 % of control; (dose: 50.0 mg/kg/injection, schedule: Q04DX002 (ip), vehicle: saline with Tween-80) 117 % of control.
Turning to `NC(Cc1cc([N+](=O)[O-])ccc1CN(CCCl)CCCl)C(=O)O` (centres undefined), the T/C is 104 % of control (dose: 0.06 mg/kg/injection, schedule: Q01DX009 (ip), vehicle: Klucel (hydroxypropylcellulose) (HPC)); 110 % of control (dose: 0.11 mg/kg/injection, schedule: Q04DX003 (ip), vehicle: Klucel (hydroxypropylcellulose) (HPC)); 120 % of control (dose: 0.12 mg/kg/injection, schedule: Q01DX009 (ip), vehicle: Klucel (hydroxypropylcellulose) (HPC)); 104 % of control (dose: 0.23 mg/kg/injection, schedule: Q04DX003 (ip), vehicle: Klucel (hydroxypropylcellulose) (HPC)); 117 % of control (dose: 0.25 mg/kg/injection, schedule: Q01DX009 (ip), vehicle: Klucel (hydroxypropylcellulose) (HPC)); 120 % of control (dose: 0.47 mg/kg/injection, schedule: Q04DX003 (ip), vehicle: Klucel (hydroxypropylcellulose) (HPC)). The T/C reads like this: (dose: 1.88 mg/kg/injection, schedule: Q04DX003 (ip), vehicle: Klucel (hydroxypropylcellulose) (HPC)) 189 % of control; (dose: 2.0 mg/kg/injection, schedule: Q01DX009 (ip), vehicle: Klucel (hydroxypropylcellulose) (HPC)) 105 % of control; (dose: 3.75 mg/kg/injection, schedule: Q04DX003 (ip), vehicle: Klucel (hydroxypropylcellulose) (HPC)) 119 % of control; (dose: 4.0 mg/kg/injection, schedule: Q01DX009 (ip), vehicle: Klucel (hydroxypropylcellulose) (HPC)) 93 % of control; (dose: 6.25 mg/kg/injection, schedule: Q01DX001 (ip), vehicle: Klucel (hydroxypropylcellulose) (HPC)) 93 % of control; (dose: 7.5 mg/kg/injection, schedule: Q04DX003 (ip), vehicle: Klucel (hydroxypropylcellulose) (HPC)) 99 % of control. Also, the T/C was 90 % of control (dose: 8.0 mg/kg/injection, schedule: Q01DX009 (ip), vehicle: Klucel (hydroxypropylcellulose) (HPC)); 91 % of control (dose: 15.0 mg/kg/injection, schedule: Q04DX003 (ip), vehicle: Klucel (hydroxypropylcellulose) (HPC)); 90 % of control (dose: 25.0 mg/kg/injection, schedule: Q01DX001 (ip), vehicle: Klucel (hydroxypropylcellulose) (HPC)).
Consider `CCCCNC(=O)OCCN(CCOC(=O)NCCCC)C(=O)N1c2ccccc2Sc2ccccc21`, for which the T/C reads like this: (dose: 50.0 mg/kg/injection, schedule: Q04DX003 (ip), vehicle: saline with Tween-80) 98 % of control; (dose: 100.0 mg/kg/injection, schedule: Q04DX003 (ip), vehicle: saline with Tween-80) 90 % of control; (dose: 200.0 mg/kg/injection, schedule: Q04DX003 (ip), vehicle: saline with Tween-80) 90 % of control.
As for `CC(C)(C)N=C(CCN1CCN(CCC(=NC(C)(C)C)Nc2ccc([N+](=O)[O-])cc2)CC1)Nc1ccc([N+](=O)[O-])cc1`, the T/C reads like this: under setting [10], 92 % of control; under setting [11], 96 % of control; under setting [9], 87 % of control; under setting [12], 91 % of control; (dose: 200.0 mg/kg/injection, schedule: Q01DX009 (ip), vehicle: Klucel (hydroxypropylcellulose) (HPC)) 93 % of control.
As for `CC(C)CC(NC(=O)C(C)N)C(=O)NC(C)C(=O)NC1C(O)OC(CO)C(O)C1O` (centres undefined), the T/C reads like this: under setting [6], 100 % of control; under setting [7], 97 % of control; under setting [8], 91 % of control.
For the molecule `CC(=O)OC1c2c(C)coc2C(=O)C23OC2CCC(C)C13C` (centres undefined), the T/C (dose: 5.0 mg/kg/injection, schedule: Q01DX009 (ip), vehicle: saline with Tween-80) was 100 % of control; the T/C (dose: 10.0 mg/kg/injection, schedule: Q01DX009 (ip), vehicle: saline with Tween-80) was 102 % of control; the T/C (dose: 20.0 mg/kg/injection, schedule: Q01DX009 (ip), vehicle: saline with Tween-80) was 102 % of control; the T/C (dose: 40.0 mg/kg/injection, schedule: Q01DX009 (ip), vehicle: saline with Tween-80) is 96 % of control.
On to `COC(=O)c1cccc2c(=O)c(CCl)c(-c3ccccc3)sc12`, for which the T/C runs as follows: under setting [6], 93 % of control; under setting [7], 91 % of control; under setting [8], 91 % of control.
`CN(C)C(=O)c1cc(C(=O)N(C)C)cc2cccc-2c1`: the T/C was 102 % of control (dose: 25.0 mg/kg/injection, schedule: Q04DX002 (ip), vehicle: saline); 98 % of control (dose: 50.0 mg/kg/injection, schedule: Q04DX002 (ip), vehicle: saline); 99 % of control and 97 % of control (dose: 100.0 mg/kg/injection, schedule: Q04DX002 (ip), vehicle: saline).
In the case of `CCOC(=O)c1cc2c(=O)oc3ccccc3c2oc1=O`, the T/C reads like this: under setting [10], 105 % of control; under setting [11], 98 % of control; under setting [12], 100 % of control.

The values are drawn from PubChem BioAssay AID330 (DTP/NCI, 2004).
